Reference: paper PMC12227661, “Shedding Light on the Phytochemical and Biological Fingerprints of Fibigia clypeata (L.) Medik Essential Oil as a Pharmacotherapeutic Agent” (Food Science & Nutrition, 2025)
≈ marks a conversion by molar mass, not a printed value.

Key:
[1] = DPPH free radical scavenging activity assay
Procedure: The DPPH radical scavenging activity assay has been performed according to the method of Blois et al. with minor modifications (Blois [1958]). Butylated Hydroxy Toluene (BHT), Butylated Hydroxy Anisole (BHA), and α‐TOC (Tocopherol) were also assayed as standards for comparison.

[2] = ABTS cation radical decolorization activity; conditions: footnote a: given as IC50
Source text: The procedure was followed from the literature (Miller et al. [1993]) and the measurements at 734 nm were read for each concentration relative to a blank absorbance (DMSO). BHA, BHT, and ‐TOC were used as standards. The obtained values were compared to the standards.

[3] = CUPRAC cupric ion‐reducing antioxidant capacity; conditions: absorbance 450 nm after 30 min
Procedure: The antioxidant capacity assay to identify the reductive efficiencies of the essential oil for Cu metal was performed according to the method reported in the literature (Apak et al. [2005]). The absorbances were measured at 450 nm after 30 min. BHA, BHT, and α‐TOC were used as standards.

[4] = test system: various bacterial strains; parameters: method as in Kyung and Fleming [1997]; conditions: ref Kyung and Fleming [1997]; cited from earlier work
four yeast strains = test system: four yeast strains; parameters: method as in Kyung and Fleming [1997]; conditions: ref Kyung and Fleming [1997]; cited from earlier work
[5] = target: T1, Acetylcholinesterase (AChE) (Electrophorus electricus, UniProt O42275); parameters: method as in Ryan and Bryan [1988]; conditions: ref Ryan and Bryan [1988]; cited from earlier work
T1 construct: purchased Sigma C3389
T1 sequence (O42275 24-633): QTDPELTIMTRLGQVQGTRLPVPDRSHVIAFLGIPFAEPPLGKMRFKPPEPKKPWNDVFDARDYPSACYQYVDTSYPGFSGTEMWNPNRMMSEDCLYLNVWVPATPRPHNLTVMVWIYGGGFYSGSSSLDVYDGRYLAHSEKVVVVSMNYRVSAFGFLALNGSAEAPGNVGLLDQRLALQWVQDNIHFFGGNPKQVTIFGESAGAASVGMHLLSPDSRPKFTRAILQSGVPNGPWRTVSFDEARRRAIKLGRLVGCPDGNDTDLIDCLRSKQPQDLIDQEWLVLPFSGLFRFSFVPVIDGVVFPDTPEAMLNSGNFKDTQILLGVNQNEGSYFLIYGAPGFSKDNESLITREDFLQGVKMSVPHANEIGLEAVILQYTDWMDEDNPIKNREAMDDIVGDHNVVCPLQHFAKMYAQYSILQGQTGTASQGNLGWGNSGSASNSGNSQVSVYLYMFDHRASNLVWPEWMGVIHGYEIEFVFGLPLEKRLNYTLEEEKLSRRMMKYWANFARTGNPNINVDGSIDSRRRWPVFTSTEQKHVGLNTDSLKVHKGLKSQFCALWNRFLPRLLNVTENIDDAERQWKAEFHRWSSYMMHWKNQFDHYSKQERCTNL

## Cc1c(C)c2c(c(C)c1O)CC[C@@](C)(CCC[C@H](C)CCC[C@H](C)CCCC(C)C)O2 [α‐TOC, Tocopherol]
[1]
  IC50 values DPPH free radical: 1.41 ± 0.04 µg/mL (≈ 3.27 µM)
[2]
  A 0.5 values ABTS cation radical: 8.48 ± 0.43 µg/mL
[3]
  A 0.5 values CUPRAC: 13.64 ± 0.32 µg/mL

## Cc1cc(C(C)(C)C)c(O)c(C(C)(C)C)c1 [BHT, Butylated Hydroxy Toluene]
[1]
  IC50 values DPPH free radical: 16.71 ± 0.80 µg/mL (≈ 75.8 µM)
[2]
  A 0.5 values ABTS cation radical: 4.44 ± 0.30 µg/mL
[3]
  A 0.5 values CUPRAC: 3.93 ± 0.24 µg/mL

## COc1ccc(O)c(C(C)(C)C)c1 [BHA, Butylated Hydroxy Anisole]
[1]
  IC50 values DPPH free radical: 3.22 ± 0.08 µg/mL (≈ 17.9 µM)
[2]
  A 0.5 values ABTS cation radical: 2.74 ± 0.03 µg/mL
[3]
  A 0.5 values CUPRAC: 4.14 ± 0.17 µg/mL

## CSSSC [Compound 2, Dimethyl trisulfide]
[4]
  MIC: 200 ppm
Four yeast strains
  MIC: 20 ppm

## C=CC(C)(O)CCC=C(C)C (stereo not drawn) [Compound 6, Linalool]
[5]
  AChE inhibition: no significant inhibition
